Where a name gives a salt, the structure may show the parent alone.

`O=C(Nc1cccc2cnccc12)c1cc2cc(F)ccc2n1Cc1cccc(F)c1`: the melting point lay within 206 to 207 °C.
The figure for `O=C(Nc1ccc2ncsc2c1)c1cc2cc(C(F)(F)F)ccc2n1Cc1cccc(F)c1` is 191 to 192 °C; for `Cc1nc2cc(NC(=O)c3cc4cc(C(F)(F)F)ccc4n3Cc3cccc(F)c3)ccc2o1` it is 182 to 183 °C; for `Cc1nc2cc(NC(=O)c3cc4cc(C(F)(F)F)ccc4n3Cc3cccc(F)c3)ccc2s1` it is 191 to 192 °C.
The figure for `O=C(Nc1ccc2cnccc2c1)c1cc2cc(F)ccc2n1Cc1cccc(F)c1` is 139 to 141 °C.
The figure for `Cn1cnc2cc(NC(=O)c3cc4cc(F)ccc4n3Cc3cccc(F)c3)ccc21` is 248 to 251 °C; for `Cn1cnc2c(NC(=O)c3cc4cc(F)ccc4n3Cc3cccc(F)c3)cccc21` it is 195 to 197 °C.
In turn, `O=C(Nc1ccc2[nH]nnc2c1)c1cc2cc(C(F)(F)F)ccc2n1Cc1cccc(F)c1` had a melting point of 167 to 174 °C.
The figure for `O=C(Nc1ccc2ncccc2c1)c1cc2cc(F)ccc2n1Cc1cccc(F)c1` is 208 to 210 °C.
The figure for `Cn1ncc2cc(NC(=O)c3cc4cc(F)ccc4n3Cc3cccc(F)c3)ccc21` is 210 to 211 °C; for `Cc1nc2cc(NC(=O)c3cc4cc(F)ccc4n3Cc3cccc(F)c3)ccc2o1` it is 188 to 189 °C.
The figure for `O=C(Nc1ccc2ncsc2c1)c1cc2cc(F)ccc2n1Cc1cccc(F)c1` is 167 to 168 °C; for `Cc1nc2cc(NC(=O)c3cc4cc(F)ccc4n3Cc3cccc(F)c3)ccc2s1` it is 201 to 202 °C.
`O=C(Nc1ccc2[nH]nnc2c1)c1cc2cc(F)ccc2n1Cc1cccc(F)c1` registered a melting point of 220 to 221 °C.
The figure for `Cc1nc2cc(NC(=O)c3cc4cc(F)ccc4n3Cc3cccc(F)c3)ccc2n1C` is 281 to 282 °C; for `O=C(Nc1ccc2nccnc2c1)c1cc2cc(F)ccc2n1Cc1cccc(F)c1` it is 188 to 189 °C; for `Cn1cnc2ccc(NC(=O)c3cc4cc(F)ccc4n3Cc3cccc(F)c3)cc21` it is 215 to 216 °C.
Take `O=C(Nc1ccc2ccncc2c1)c1cc2cc(F)ccc2n1Cc1cccc(F)c1` (as salt: HCl): the melting point was 270 to 272 °C.
The figure for `Cc1nc2ccc(NC(=O)c3cc4cc(F)ccc4n3Cc3cccc(F)c3)cc2[nH]1` (as salt: HCl) is 195 to 200 °C.
The figure for `O=C(Nc1ccc2nc[nH]c2c1)c1cc2cc(F)ccc2n1Cc1cccc(F)c1` (as salt: HCl) is 275 to 280 °C.
With `CN1CCCc2ccc(NC(=O)c3cc4ccccc4n3-c3cccc(C(F)(F)F)c3)cc21` [Compound 2, N-(1-methyl-1,2,3,4-tetrahydroquinol-7-yl)-1-[3-(trifluoromethyl)phenyl]-1H-indole-2-carboxamide], the melting point fell in the range of 92 to 95 °C.
The figure for `O=C(Nc1ccc2c(c1)NCCC2)c1cc2ccccc2n1-c1cccc(C(F)(F)F)c1` [Compound 4, N-(1,2,3,4-tetrahydroquinol-7-yl)-1-[3-(trifluoromethyl)phenyl]-1H-indole-2-carboxamide] is 140 to 143 °C; for `CC1C(=O)NOc2cc(NC(=O)c3cc4ccccc4n3-c3cccc(C(F)(F)F)c3)ccc21` (stereo not drawn) [Compound 5, N-(4-methyl-3-oxo-2H-benzoxazin-7-yl)-1-[3-(trifluoromethyl)phenyl]-1H-indole-2-carboxamide] it is 198 to 200 °C; for `CC1C(=O)NOc2ccc(NC(=O)c3cc4ccccc4n3-c3cccc(C(F)(F)F)c3)cc21` (stereo not drawn) [Compound 6, N-(4-methyl-3-oxo-2H-benzoxazin-6-yl)-1-[3-(trifluoromethyl)phenyl]-1H-indole-2-carboxamide] it is 178 to 180 °C.
The figure for `O=C(Nc1ccc2occc2c1)c1cc2ccccc2n1-c1cccc(C(F)(F)F)c1` [Compound 8, N-(benzofuran-5-yl)-1-[3-(trifluoromethyl)phenyl]-1H-indole-2-carboxamide] is 141 to 143 °C; for `O=C(Nc1ccc2c(c1)CCNO2)c1cc2ccccc2n1-c1cccc(C(F)(F)F)c1` [Compound 10, N-(2,3-dihydrobenzoxazin-6-yl)-1-[3-(trifluoromethyl)phenyl]-1H-indole-2-carboxamide] it is 90 to 92 °C; for `O=C1Cc2ccc(NC(=O)c3cc4ccccc4n3-c3cccc(C(F)(F)F)c3)cc2ON1` [Compound 11, N-(3-oxo-2H-benzoxazin-7-yl)-1-[3-(trifluoromethyl)phenyl]-1H-indole-2-carboxamide] it is 214 to 216 °C.
The figure for `O=C(Nc1cccc2c1NCCC2)c1cc2ccccc2n1-c1cccc(C(F)(F)F)c1` [Compound 16, N-(1,2,3,4-tetrahydroquinol-8-yl)-1-[3-(trifluoromethyl)phenyl]-1H-indole-2-carboxamide] is 93 to 95 °C; for `O=C(Nc1ccc2ocnc2c1)c1cc2ccccc2n1-c1cccc(C(F)(F)F)c1` [Compound 17, N-(benzoxazol-5-yl)-1-[3-(trifluoromethyl)phenyl]-1H-indole-2-carboxamide] it is 222 to 224 °C.
In turn, `O=C1Cc2cc(NC(=O)c3cc4cc(C(F)(F)F)ccc4n3Cc3cccc(F)c3)ccc2N1` [Compound 25, N-(2-oxoindolin-5-yl)-5-trifluoromethyl-1-[(3-fluorophenyl)methyl]-1H-indole-2-carboxamide] came in with a melting point of 244 to 246 °C.
The figure for `CN1CCCc2ccc(NC(=O)c3cc4cc(C(F)(F)F)ccc4n3Cc3cccc(F)c3)cc21` [Compound 27, N-(1-methyl-1,2,3,4-tetrahydroquinol-7-yl)-5-trifluoromethyl-1-[(3-fluorophenyl)methyl]-1H-indole-2-carboxamide] is 146 to 147 °C.
On to `CS(=O)(=O)N1CCc2cc(NC(=O)c3cc4cc(C(F)(F)F)ccc4n3Cc3cccc(F)c3)ccc21` [Compound 31, N-(1-methylsulfonylindolin-5-yl)-5-trifluoromethyl-1-[(3-fluorophenyl)methyl]-1H-indole-2-carboxamide], for which the melting point lay in the range of 214 to 215 °C.
The figure for `O=C1CCc2ccc(NC(=O)c3cc4cc(C(F)(F)F)ccc4n3Cc3cccc(F)c3)cc2N1` [Compound 41, N-(2-oxo-3,4-dihydroquinol-7-yl)-5-trifluoromethyl-1-[(3-fluorophenyl)methyl]-1H-indole-2-carboxamide] is 298 to 299 °C; for `O=C1Cc2cc(NC(=O)c3cc4cc(F)ccc4n3Cc3cccc(F)c3)ccc2N1` [Compound 42, N-(2-oxoindolin-5-yl)-5-fluoro-1-[(3-fluorophenyl)methyl]-1H-indole-2-carboxamide] it is 249 to 250 °C; for `CS(=O)(=O)N1CCc2cc(NC(=O)c3cc4cc(F)ccc4n3Cc3cccc(F)c3)ccc21` [Compound 44, N-(1-methylsulfonylindolin-5-yl)-5-fluoro-1-[(3-fluorophenyl)methyl]-1H-indole-2-carboxamide] it is 192 to 193 °C.
The figure for `CCc1nc2cc(NC(=O)c3cc4cc(C(F)(F)F)ccc4n3Cc3cccc(F)c3)ccc2o1` [Compound 46, N-(2-ethylbenzoxazol-5-yl)-5-trifluoromethyl-1-[(3-fluorophenyl)methyl]-1H-indole-2-carboxamide] is 187 to 189 °C.

The term melting point denotes the temperature, or range, at which the solid turns liquid.
